Test results taken from patent US4221800A, “Cycloalkenochromone” (Miles Laboratories, Inc., priority 1977, dated 1980).

Columns and labels:
mast cells = test: inhibition of mast cell degranulation (spasmogen release) induced by phospholipase A; type: cell-based, rat; details: for Relative Potency (in relation to disodium cromoglycate): IC20 relative to disodium cromoglycate, rat mast cells; for IC20: Mast cell, rat peritoneal mast cells, 37° C., ten minutes, read-out: IC20 (inhibition of mast cell degranulation by 20%)
Procedure: The anti-allergic activity was determined by measuring the inhibition of allergic release of spasmogens from mast cells, using the method of Taylor et al., as described in Int. Arch. Allergy, 46, 104(1974).
The inhibition of spasmogen release from mast cells involved obtaining pools of mast cells from normal rats. For each experiment involving pools of mast cells, 10 or more rats were killed by decapitation. The peritoneal fluid from the animals was pooled and the pool dispensed into small polyethylene tubes […] containing 25 μl of a degranulating agent phospholipase A (PL-A), and 25 μl of the drug to be tested. Each treatment was repeated in at least four tubes. All the tubes were incubated at 37° C. for ten minutes. The mast cells were fixed and stained by addition of 50 μl/tube of 2.5% toluidine blue made up in 25% acetic acid. The proportion of mast cells undergoing degranulation was assessed by counting under the microscope. At least 25 mast cells were counted from each tube. The percentage inhibition of degranulation resulting from each treatment was calculated using the formula 100[1-(x-z)/(y-z)], where `x` represents the mean percentage of cells undergoing degranulation in the tubes treated with PL-A and drug, `y` represents the mean percentage of cells undergoing degranulation in the tubes treated with PL-A only, and "z" represents the mean percentage of cells undergoing degranulation in the PL-A-negative tubes.
[See Nature, Vo. 223, 197 (1969)].

[1] = tested on: allergic release of spasmogens in immediate hypersensitivity reactions; details: immediate hypersensitivity reactions in several animals; Nature 223, 197 (1969); cited from earlier work
[2] = tested on: allergen-induced bronchoconstriction; details: asthmatics; reference compound; cited from earlier work

O=C(O)c1ccc2oc3c(c(=O)c2c1)CCCC3 [Example 1, 6-Carboxy-2,3-cyclohexenochromone]
Relative Potency (in relation to disodium cromoglycate) (mast cells): 3.1
IC20 (mast cells): 2100 nM

O=c1c2c(oc3ccc(-c4nn[nH]n4)cc13)CCCC2 [Example 2, 6-(5-(1H)-tetrazolyl)-2,3-cyclohexenochromone]
Relative Potency (in relation to disodium cromoglycate) (mast cells): 3.8
IC20 (mast cells): 1700 nM

CC1CCc2oc3ccc(C(=O)O)cc3c(=O)c2C1 (centres unmarked) [Example 3, 6-Carboxy-2,3-(4'-methylcyclohexeno)chromone]
Relative Potency (in relation to disodium cromoglycate) (mast cells): 1.0
IC20 (mast cells): 6500 nM

CC1CCc2oc3ccc(-c4nn[nH]n4)cc3c(=O)c2C1 (centres unmarked) [Example 4, 6-(5-(1H)-tetrazolyl)-2,3-(4'-methylcyclohexeno)chromone]
Relative Potency (in relation to disodium cromoglycate) (mast cells): 1.4
IC20 (mast cells): 4500 nM

CCC1CCc2oc3ccc(C(=O)O)cc3c(=O)c2C1 (centres unmarked) [Example 5, Sodium-6-carboxy-2,3-(4'-ethylcyclohexeno)chromone]
Relative Potency (in relation to disodium cromoglycate) (mast cells): 11.2
IC20 (mast cells): 580 nM

CCC1CCc2oc3ccc(-c4nn[nH]n4)cc3c(=O)c2C1 (centres unmarked) [Example 6, Sodium 6-(5-(1H)-tetrazolyl)-2,3-(4'-ethylcyclohexeno)chromone]
Relative Potency (in relation to disodium cromoglycate) (mast cells): 6.5
IC20 (mast cells): 1000 nM

O=C(O)c1ccc2oc3c(c(=O)c2c1)CC(C(=O)O)CC3 (centres unmarked) [Example 7, 6-Carboxy-2,3-(4'-carboxycyclohexeno)chromone]
Relative Potency (in relation to disodium cromoglycate) (mast cells): 1.0
IC20 (mast cells): 6500 nM

CCOC(=O)C1CCc2oc3ccc(-c4nn[nH]n4)cc3c(=O)c2C1 (centres unmarked) [Example 8, 6-(5-(1H)-tetrazolyl)-2,3-(4'-ethoxycarbonylcyclohexeno)chromone]
Relative Potency (in relation to disodium cromoglycate) (mast cells): 1.6
IC20 (mast cells): 4200 nM

O=c1c2c(oc3ccc(-c4nn[nH]n4)cc13)CCCCCC2 [Example 13, 6-(5-(1H)-tetrazolyl)-2,3-cyclooctenochromone]
Relative Potency (in relation to disodium cromoglycate) (mast cells): 5.0
IC20 (mast cells): 1300 nM

O=C(O)c1ccc2oc3c(c(=O)c2c1)CC(OCc1ccccc1)CC3 (centres unmarked) [Example 15, 6-Carboxy-2,3-(4'-benzyloxycyclohexeno)chromone]
Relative Potency (in relation to disodium cromoglycate) (mast cells): 1.5
IC20 (mast cells): 4300 nM

CSc1ccc2oc3c(c(=O)c2c1)CC(C(=O)O)CC3 (centres unmarked) [Example 18, 6-Methylthio-2,3-(4'-carboxycyclohexeno)chromone]
Relative Potency (in relation to disodium cromoglycate) (mast cells): 5.0
IC20 (mast cells): 1300 nM

CS(=O)(=O)c1ccc2oc3c(c(=O)c2c1)CC(C(=O)O)CC3 (centres unmarked) [Example 20, 6-Methylsulfonyl-2,3-(4'-carboxycyclohexeno)chromone]
Relative Potency (in relation to disodium cromoglycate) (mast cells): 3.4
IC20 (mast cells): 1900 nM

COC1CCc2oc3ccc(C(=O)O)cc3c(=O)c2C1 (centres unmarked) [Example 21, 6-Carboxy-2,3-(4'-methoxycyclohexeno)chromone]
Relative Potency (in relation to disodium cromoglycate) (mast cells): 3.6
IC20 (mast cells): 1800 nM

O=C(O)c1ccc2c(=O)c3c(oc2c1)CCCC3 [Example 24, 7-Carboxy-2,3-cyclohexenochromone]
Relative Potency (in relation to disodium cromoglycate) (mast cells): 3.1
IC20 (mast cells): 2100 nM

O=c1c2c(oc3cc(-c4nn[nH]n4)ccc13)CCCC2 [Example 25, 7(5-(1H)-tetrazolyl)-2,3-cyclohexenochromone]
Relative Potency (in relation to disodium cromoglycate) (mast cells): 7.2
IC20 (mast cells): 900 nM

CCC1CCc2oc3cc(C(=O)O)ccc3c(=O)c2C1 (centres unmarked) [Example 26, 7-Carboxy-2,3-(4'-ethylcyclohexeno)chromone]
Relative Potency (in relation to disodium cromoglycate) (mast cells): > 13.0
IC20 (mast cells): < 600 nM

CCC1CCc2oc3cc(-c4nn[nH]n4)ccc3c(=O)c2C1 (centres unmarked) [Example 27, 7-(5-(1H)-tetrazolyl)-2,3-(4'-ethylcyclohexeno)chromone]
Relative Potency (in relation to disodium cromoglycate) (mast cells): > 13.0
IC20 (mast cells): < 600 nM

CC1(c2ccccc2)CCc2oc3ccc(-c4nn[nH]n4)cc3c(=O)c2C1 (centres unmarked) [Example 31, 6-(5-(1H)-tetrazolyl)-2,3-(4'-methyl-4'-phenylcyclohexeno)chromone]
Relative Potency (in relation to disodium cromoglycate) (mast cells): 4.3
IC20 (mast cells): 1500 nM

CCC1CCC2=C(C1)C(=O)c1cc(C(=O)O)ccc1S2(=O)=O (centres unmarked) [Example 32, 6-Carboxy-2,3-(4'-ethylcyclohexeno)thiochromone-1,1-dioxide]
Relative Potency (in relation to disodium cromoglycate) (mast cells): 10.8
IC20 (mast cells): 600 nM

CCC1CCc2sc3ccc(C(=O)O)cc3c(=O)c2C1 (centres unmarked) [Example 33, 6-Carboxy-2,3-(4'-ethylcyclohexeno)thiochromone]
Relative Potency (in relation to disodium cromoglycate) (mast cells): 1.41
IC20 (mast cells): 4600 nM

CCC1CCc2sc3ccc(-c4nn[nH]n4)cc3c(=O)c2C1 (centres unmarked) [Example 35, 6-(5-(1H)-tetrazolyl)-2,3-(4'-ethylcyclohexeno)thiochromone]
Relative Potency (in relation to disodium cromoglycate) (mast cells): 18,1
IC20 (mast cells): 360 nM

O=C(O)c1cc(=O)c2c(OCC(O)COc3cccc4oc(C(=O)O)cc(=O)c34)cccc2o1 [disodium cromogylcate]
inhibition of allergic release of spasmogens (in words) [1]: specifically inhibit the allergic release of spasmogens in immediate hypersensitivity reactions in several animals
inhibition of experimental allergen-induced bronchoconstriction (in words) [2]: effective inhibitor of experimental allergen-induced bronchoconstriction in asthmatics
